Values after ≈ are worked out from the molar mass of the structure shown. Like-named read-outs stand apart in the source and are kept apart here.
Tests used:
[1] = test system: P. aeruginosa (ATCC 19660); experiment: Antibiotic susceptibility (MIC, Microscan® MIC Plus Type 2 panel) with rBPI21/P123 and EDTA; assay type: cell-based; parameters: key to susceptibility interpretation of MIC (superscript): R: resistant; I: intermediate; S: susceptible; conditions: for effect of EDTA added to the rBPI21/P123 formulation on susceptibility of the strain to the antibiotic: summary of Table 17
Experimental: In additional experiments, a BPI protein product, rBPI21, was formulated with an anti-bacterial activity enhancing poloxamer, specifically PLURONIC P123, and with various concentrations of EDTA, and was evaluated for its effect on the antibiotic susceptibility of a Pseudomonas aeruginosa (ATCC 19660). Antibiotic susceptibility was determined using Microscan® panel plates (Dade Microscan, West Sacramento, Calif.) that allow simultaneous determination of minimum inhibitory concentrations for a number of different antibiotics.
The antimicrobial susceptibility tests performed on the Microscan® panel plates are miniaturizations of the broth dilution susceptibility test. Antimicrobial agents are serially diluted in Mueller-Hinton broth (supplemented with calcium and magnesium, or with sodium chloride for oxacillin, or with thymidine phosphorylase for trimethoprim, sulfamethoxazole and trimethoprim/ sulfamethoxazole) to concentrations bridging the range of clinical interest. One well on the 96-well Microscan® plate is a growth control well that contains dehydrated broth only. The remaining wells contain dehydrated broth and antibiotic (or broth and biochemical reagent indicator), which is rehydrated to the desired concentration by inoculation of a standardized suspension of test organism. The chromogenic biochemical agent indicators are used to identify and characterize the species of bacteria based on detection of pH changes and substrate utilization. […] Gram-negative and gram positive organisms may be tested using any of the Microscan® panel plates (Microscan®, Dade Microscan, West Sacramento, Calif.). In these experiments with P. aeruginosa, the MIC Plus Type 2 panel plates were used. The concentrations of antibiotics tested in this panel plate are shown below in Table 16. The antibiotic susceptibility standards (interpretation of an MIC as resistant, intermediate or susceptible according to Microscan®'s NCCLS-derived standards) applicable to the gram-negative organisms that may be tested in each panel plate appear below in Table 16A.
For these experiments with P. aeruginosa, the following procedure was performed: The organism was streaked onto TSA plates (Remel, Lenexa, Kans.) and incubated for 18-24 hours overnight. Well-isolated A, colonies from the plates were emulsified in 3 ml of sterile Inoculum Water d(catalog no. B1015-2, MicrosScan® system, Dade Microscan, West Sacramento, Calif.) to a final turbidity equivalent to 0.5 McFarland Barium Sulfate standard. This cell suspension was vortexed for 2 to 3 seconds and 100 μl was transferred to glass tubes containing 25 ml of Inoculum Water with Pluronic-D (catalog no. B1015-7, MicroScan® system, Dade Microscan, West Sacramento, Calif.) (hereinafter “Pluronic Inoculum Water”), or 25 ml of Pluronic Inoculum Water into which rBPI21 in 0.2% PLURONIC P123, 0.002% TWEEN 80, 5mM sodium citrate, 150 mM NaCl (“rBPI21/P123”) had been diluted to 64 μg/ml rBPI21.
The 25 ml of this inoculum containing rBPI21 was mixed by inversion and poured into a tray. The inoculum was drawn up into a manual 96-well pipetting system (RENOK^− rehydrator-inoculator system, Dade Microscan, West Sacramento, Calif.) designed for use with the Microscan® panel plates, and 110 μl of the inoculum was delivered to each well of a Microscan® MIC Plus Type 2 panel plate. When added to the wells, this inoculum achieves a final bacterial concentration of 4×10^5 to 7×10^5 CFU/ml. The panel plates were then incubated at 35° C. for 15-24 hours and read visually for cell growth.
No growth was defined as a slight whiteness in the well or a clear broth. Growth appeared as turbidity which could take the form of a white haze throughout the well, a white button in the center of the well, or a fine granule growth throughout the well. All wells were read against a black indirectly lighted background. Visual results of the biochemical reactions were read into a database for bacterial identification.

E. faecium = experiment: Antibiotic susceptibility (MIC, Sensititre Trays) with rBPI21 poloxamer formulations; assay type: cell-based; conditions: for MIC: Enterococcus faecium, read-out: Minimum Inhibitory Concentration
Experimental: The effect of therapeutic compositions of rBPI21 formulated with poloxamer, with or without EDTA, was evaluated on the antibiotic susceptibility of the multiple drug resistant A. baumannii, S. pneumoniae, E. faecium and P. aeruginosa organisms of Example 5. Therapeutic compositions were prepared containing 2 mg/mL rBPI21, (5 mM sodium citrate, 150 mM NaCl) with a 0.2% (w/v) concentration of PLURONIC F68, P103, P104, P105 or P123. The effect on the antibiotic susceptibility of the organisms was determined in Mueller-Hinton Broth plus Cations (CSMHB, Remel), or 40% pooled human serum in CSMHB (Sigma, St. Louis, Mo.), as follows.
Isolated colonies of the organism from overnight cultures were suspended in Microscan® Inoculum Water to a concentration equivalent to a 0.5 McFarland Standard (approximately 1×10^8 CFU/ml), determined using a Microscan® turbidimeter. Aliquots were transferred to either CSMHB or 40% pooled human serum in CSMHB. Each tube contained either a final concentration of 16 μg/mL rBPI21 or an equivalent volume of control buffer. Minimal inhibitory concentrations (MIC) for each antibiotic tested, i.e. the lowest concentration of antibiotic which inhibits visible growth, were determined using gram-negative (MB and MC) and gram-positive (MA) Sensititre Trays (Radiometer America, Westlake, Ohio), which allow for the rapid and simultaneous survey of a broad spectrum of standard antibiotics. Any other antimicrobial panel systems known in the art, such as the Microscan® (Dade Microscan, Sacramento, Calif.), Pasco (DIFCO, Detroit, Mich.) and Alamar (Alamar, Sacramento, Calif.) systems, may alternatively be used to assay for antibiotic susceptibility.
Tables 12-15 below display a summary of the results of the antibiotic screening panels, reported for each strain tested as the MIC of the tested antibiotics in the presence of the indicated rBPI21 therapeutic composition. The antibiotic susceptibility standards (interpretation of an MIC as clinically resistant (R), intermediate (I) or susceptible (S) according to NCCLS standards) applicable to the organism tested appear in superscript next to the MIC.

[2] = rBPI21/P123 at 64 μg/ml rBPI21, With 0% EDTA
[3] = rBPI21/P123 at 64 μg/ml rBPI21, With 0.01% EDTA
[4] = rBPI21/P123 at 64 μg/ml rBPI21, With 0.05% EDTA
[5] = rBPI21/P123 at 64 μg/ml rBPI21, With 0.1% EDTA
[6] = CSMHB, 16 μg/mL rBPI21 with F68
[7] = CSMHB, 16 μg/mL rBPI21 with P103
[8] = CSMHB, 16 μg/mL rBPI21 with P104
[9] = CSMHB, 16 μg/mL rBPI21 with P105
[10] = CSMHB, 16 μg/mL rBPI21 with P123
[11] = Serum, 16 μg/mL rBPI21 with F68
[12] = Serum, 16 μg/mL rBPI21 with P103
[13] = Serum, 16 μg/mL rBPI21 with P104
[14] = Serum, 16 μg/mL rBPI21 with P105
[15] = Serum, 16 μg/mL rBPI21 with P123

O=C(O)c1cn(C2CC2)c2cc(N3CCNCC3)c(F)cc2c1=O [Ciprofloxacin]
Minimum Inhibitory Concentration of Antibiotic ([1]; Control (No BPI21)): < 0.25 µg/mL
susceptibility interpretation of MIC (superscript) ([1]; Control (No BPI21)): S
Minimum Inhibitory Concentration of Antibiotic [1, 2]: < 0.25 µg/mL
susceptibility interpretation of MIC (superscript) [1, 2]: S
Minimum Inhibitory Concentration of Antibiotic [1, 3]: < 0.25 µg/mL
susceptibility interpretation of MIC (superscript) [1, 3]: S
Minimum Inhibitory Concentration of Antibiotic [1, 4]: < 0.25 µg/mL
susceptibility interpretation of MIC (superscript) [1, 4]: S
Minimum Inhibitory Concentration of Antibiotic [1, 5]: < 0.25 µg/mL
susceptibility interpretation of MIC (superscript) [1, 5]: S
susceptibility interpretation of MIC (superscript) (E. faecium; [6]): S
susceptibility interpretation of MIC (superscript) (E. faecium; [7]): S
susceptibility interpretation of MIC (superscript) (E. faecium; [8]): S
susceptibility interpretation of MIC (superscript) (E. faecium; [9]): S
susceptibility interpretation of MIC (superscript) (E. faecium; [10]): S
susceptibility interpretation of MIC (superscript) (E. faecium; CSMHB, Control (no BPI)): I
MIC (E. faecium; [6]): 1 µg/mL (≈ 3.02 µM)
MIC (E. faecium; [7]): < 0.5 µg/mL
MIC (E. faecium; [8]): 1 µg/mL (≈ 3.02 µM)
MIC (E. faecium; [9]): 1 µg/mL (≈ 3.02 µM)
MIC (E. faecium; [10]): 1 µg/mL (≈ 3.02 µM)
MIC (E. faecium; CSMHB, Control (no BPI)): 2 µg/mL (≈ 6.04 µM)
susceptibility interpretation of MIC (superscript) (E. faecium; [11]): S
susceptibility interpretation of MIC (superscript) (E. faecium; [12]): I
susceptibility interpretation of MIC (superscript) (E. faecium; [13]): I
susceptibility interpretation of MIC (superscript) (E. faecium; [14]): I
susceptibility interpretation of MIC (superscript) (E. faecium; [15]): I
susceptibility interpretation of MIC (superscript) (E. faecium; Serum, Control (no BPI)): I

CO[C@H]1/C=C/O[C@@]2(C)Oc3c(C)c(O)c4c(O)c(c(/C=N/N5CCN(C)CC5)c(O)c4c3C2=O)NC(=O)/C(C)=C\C=C\[C@H](C)[C@H](O)[C@@H](C)[C@@H](O)[C@@H](C)[C@H](OC(C)=O)[C@@H]1C [Rifampicin]
susceptibility interpretation of MIC (superscript) (E. faecium; [6]): S
susceptibility interpretation of MIC (superscript) (E. faecium; [7]): S
susceptibility interpretation of MIC (superscript) (E. faecium; [8]): S
susceptibility interpretation of MIC (superscript) (E. faecium; [9]): S
susceptibility interpretation of MIC (superscript) (E. faecium; [10]): S
susceptibility interpretation of MIC (superscript) (E. faecium; CSMHB, Control (no BPI)): R
MIC (E. faecium; [6]): 0.5 µg/mL (≈ 0.608 µM)
MIC (E. faecium; [7]): 0.5 µg/mL (≈ 0.608 µM)
MIC (E. faecium; [8]): 0.5 µg/mL (≈ 0.608 µM)
MIC (E. faecium; [9]): 0.5 µg/mL (≈ 0.608 µM)
MIC (E. faecium; [10]): 0.5 µg/mL (≈ 0.608 µM)
MIC (E. faecium; CSMHB, Control (no BPI)): 4 µg/mL (≈ 4.86 µM)
MIC (E. faecium; [11]): 1 µg/mL (≈ 1.22 µM)
MIC (E. faecium; [12]): 1 µg/mL (≈ 1.22 µM)
MIC (E. faecium; [13]): > 4 µg/mL
MIC (E. faecium; [14]): 0.5 µg/mL (≈ 0.608 µM)
MIC (E. faecium; [15]): 0.5 µg/mL (≈ 0.608 µM)
MIC (E. faecium; Serum, Control (no BPI)): 4 µg/mL (≈ 4.86 µM)
susceptibility interpretation of MIC (superscript) (E. faecium; [11]): S
susceptibility interpretation of MIC (superscript) (E. faecium; [12]): S
susceptibility interpretation of MIC (superscript) (E. faecium; [13]): R
susceptibility interpretation of MIC (superscript) (E. faecium; [14]): S
susceptibility interpretation of MIC (superscript) (E. faecium; [15]): S
susceptibility interpretation of MIC (superscript) (E. faecium; Serum, Control (no BPI)): R

CC1(C)S[C@@H]2[C@H](NC(=O)[C@H](C(=O)O)c3ccsc3)C(=O)N2[C@H]1C(=O)O [Ticarcillin]
Minimum Inhibitory Concentration of Antibiotic ([1]; Control (No BPI21)): < 16 µg/mL
susceptibility interpretation of MIC (superscript) ([1]; Control (No BPI21)): S
Minimum Inhibitory Concentration of Antibiotic [1, 2]: < 16 µg/mL
susceptibility interpretation of MIC (superscript) [1, 2]: S
Minimum Inhibitory Concentration of Antibiotic [1, 3]: < 16 µg/mL
susceptibility interpretation of MIC (superscript) [1, 3]: S
Minimum Inhibitory Concentration of Antibiotic [1, 4]: < 16 µg/mL
susceptibility interpretation of MIC (superscript) [1, 4]: S
Minimum Inhibitory Concentration of Antibiotic [1, 5]: < 16 µg/mL
susceptibility interpretation of MIC (superscript) [1, 5]: S

Amoxicillin/K Clavulanate [Amox/K Clavulanate]
Minimum Inhibitory Concentration of Antibiotic ([1]; Control (No BPI21)): > 32 µg/mL
susceptibility interpretation of MIC (superscript) ([1]; Control (No BPI21)): R
Minimum Inhibitory Concentration of Antibiotic [1, 2]: > 32 µg/mL
susceptibility interpretation of MIC (superscript) [1, 2]: R
Minimum Inhibitory Concentration of Antibiotic [1, 3]: < 1 µg/mL
susceptibility interpretation of MIC (superscript) [1, 3]: S
Minimum Inhibitory Concentration of Antibiotic [1, 4]: 32 µg/mL
susceptibility interpretation of MIC (superscript) [1, 4]: R
Minimum Inhibitory Concentration of Antibiotic [1, 5]: < 1 µg/mL
susceptibility interpretation of MIC (superscript) [1, 5]: S
effect of EDTA added to the rBPI21/P123 formulation on susceptibility of the strain to the antibiotic [1]: reversing resistance

Ampicillin/Sulbactam [Amp/Sulbact]
Minimum Inhibitory Concentration of Antibiotic ([1]; Control (No BPI21)): > 32 µg/mL
susceptibility interpretation of MIC (superscript) ([1]; Control (No BPI21)): R
Minimum Inhibitory Concentration of Antibiotic [1, 2]: > 32 µg/mL
susceptibility interpretation of MIC (superscript) [1, 2]: R
Minimum Inhibitory Concentration of Antibiotic [1, 3]: < 1 µg/mL
susceptibility interpretation of MIC (superscript) [1, 3]: S
Minimum Inhibitory Concentration of Antibiotic [1, 4]: 16 µg/mL
susceptibility interpretation of MIC (superscript) [1, 4]: I
Minimum Inhibitory Concentration of Antibiotic [1, 5]: 16 µg/mL
susceptibility interpretation of MIC (superscript) [1, 5]: I
effect of EDTA added to the rBPI21/P123 formulation on susceptibility of the strain to the antibiotic [1]: reversing resistance

Ticarcillin/K Clavulanate [Ticar/K Clavulanate]
Minimum Inhibitory Concentration of Antibiotic ([1]; Control (No BPI21)): < 16 µg/mL
susceptibility interpretation of MIC (superscript) ([1]; Control (No BPI21)): S
Minimum Inhibitory Concentration of Antibiotic [1, 2]: < 16 µg/mL
susceptibility interpretation of MIC (superscript) [1, 2]: S
Minimum Inhibitory Concentration of Antibiotic [1, 3]: < 16 µg/mL
susceptibility interpretation of MIC (superscript) [1, 3]: S
Minimum Inhibitory Concentration of Antibiotic [1, 4]: < 16 µg/mL
susceptibility interpretation of MIC (superscript) [1, 4]: S
Minimum Inhibitory Concentration of Antibiotic [1, 5]: < 16 µg/mL
susceptibility interpretation of MIC (superscript) [1, 5]: S

Reference: patent US6849598B1, “Therapeutic compositions comprising bactericidal/permeability-increasing (BPI) protein products” (XOMA, priority 1995, dated 2005)
